Patent US20120115727A1, “CONTROL OF PHENOXYALKANOIC ACID HERBICIDE-RESISTANT WEEDS WITH 4-AMINO-3-CHLORO-6-(4-CHLORO-2-FLUORO-3-METHOXYPHENYL)PYRIDINE-2-CARBOXYLIC ACID AND ITS SALTS OR ESTERS” (DOW AGROSCIENCES LLC, priority 2010, published 2012)

Columns and labels:
Assay in all cases: Postemergence herbicidal activity, greenhouse, visual injury
Format in all cases: in vivo, Papaver rhoeas
Details in all cases: 20-22 d after application
[1] = tested on: PAPRH-S1F00101 (phenoxyalkanoic acid herbicide-resistant corn poppy)
Experimental: (§1) Seeds of the phenoxyalkanoic acid herbicide-resistant and susceptible plant species were planted in Sun Gro MetroMix® 306 planting mixture, which typically has a pH of 6.0 to 6.8 and an organic matter content of about 30 percent, in plastic pots with a surface area of 103.2 square centimeters (cm^2). When required to ensure good germination and healthy plants, a fungicide treatment and/or other chemical or physical treatment was applied. The plants were grown for 7-36 days (d) in a greenhouse with an approximate 14-hour (h) photo-period which was maintained at about 18° C. during the day and 17° C. during the night. Nutrients and water were added on a regular basis and supplemental lighting was provided with overhead metal halide 1000-Watt lamps as necessary. The plants were employed for testing when they reached the second or third true leaf stage.
(§2) Treatments consisted of the acid or esters of 4-amino-3-chloro-6-(4-chloro-2-fluoro-3-methoxyphenyl)pyridine-2-carboxylic acid (Compound I) and 2,4-D, mecoprop and 2-(4-chloro-2-methyl-phenoxy)acetic acid (MCPA) alone. Weighed amounts of the herbicides were dissolved in a volume of 97:3 volume-per-volume (v/v) acetone/dimethylsulfoxide (DMSO) to obtain concentrated solutions. […] The concentrated solutions of the test compound were diluted with the addition of an aqueous mixture containing acetone, water, isopropyl alcohol, DMSO, Agri-Dex crop oil concentrate, and Triton® X-77 surfactant in a 64.7:26.0:6.7:2.0:0.7:0.01 v/v ratio. Test compounds were diluted to the appropriate application rate with a dilution solution which was prepared by mixing the appropriate volume of 97:3 v/v acetone/DMSO and the appropriate volume of an aqueous mixture containing acetone, water, isopropyl alcohol, DMSO, Agri-Dex crop oil concentrate, and Triton® X-77 surfactant in a 64.7:26.0:6.7:2.0:0.7:0.01 v/v ratio. Compound requirements are based upon a 12 mL application volume at a rate of 187 liters per hectare (L/ha). Spray solutions of 2,4-D, mecoprop and MCPA were prepared by diluting an aliquot of the concentrated herbicide with an aqueous mixture containing 1.25% v/v Agri-Dex. 2,4-D, mecoprop and MCPA were applied at 1×, 2× and 4× of the recommended application rate.
(§3) Formulated compounds were applied to the plant material with an overhead Mandel track sprayer equipped with 8002E nozzles calibrated to deliver 187 L/ha over an application area of 0.503 square meters (m^2) at a spray height of 18 inches (43 centimeters (cm)) above average plant canopy. Control plants were sprayed in the same manner with the solvent blank.
(§4) The treated plants and control plants were placed in a greenhouse as described above and watered by sub-irrigation to prevent wash-off of the test compounds. After 20-22 d, the condition of the test plants as compared with that of the control plants was determined visually and scored on a scale of 0 to 100 percent where 0 corresponds to no injury and 100 corresponds to complete kill.

[2] = tested on: PAPRH-Susceptible (susceptible corn poppy)
Experimental: as §1, §2, §3, §4

[3] = tested on: PAPRH-S4F00103 (phenoxyalkanoic acid herbicide-resistant corn poppy)
Experimental: as §1, §2, §3, §4

[4] = tested on: PAPRH-S2F01502 (phenoxyalkanoic acid herbicide-resistant corn poppy)
Experimental: as §1, §2, §3, §4

[5] = tested on: PAPRH-S4F00101 (phenoxyalkanoic acid herbicide-resistant corn poppy)
Experimental: as §1, §2, §3, §4

Row | Compound | Activity (visual injury, 0 = no injury, 100 = complete kill) PAPRH-S1F00101 ([1]; 800 g ae/ha) [%] | Activity (visual injury, 0 = no injury, 100 = complete kill) PAPRH-S1F00101 ([1]; 1600 g ae/ha) [%] | Activity (visual injury, 0 = no injury, 100 = complete kill) PAPRH-S1F00101 ([1]; 3200 g ae/ha) [%] | Activity (visual injury, 0 = no injury, 100 = complete kill) PAPRH-Susceptible ([2]; 800 g ae/ha) [%] | Activity (visual injury, 0 = no injury, 100 = complete kill) PAPRH-Susceptible ([2]; 1600 g ae/ha) [%] | Activity (visual injury, 0 = no injury, 100 = complete kill) PAPRH-Susceptible ([2]; 3200 g ae/ha) [%] | Activity (visual injury, 0 = no injury, 100 = complete kill) PAPRH-S4F00103 ([3]; 800 g ae/ha) [%] | Activity (visual injury, 0 = no injury, 100 = complete kill) PAPRH-S4F00103 ([3]; 1600 g ae/ha) [%] | Activity (visual injury, 0 = no injury, 100 = complete kill) PAPRH-S4F00103 ([3]; 3200 g ae/ha) [%] | Activity (visual injury, 0 = no injury, 100 = complete kill) PAPRH-S2F01502 ([4]; 800 g ae/ha) [%] | Activity (visual injury, 0 = no injury, 100 = complete kill) PAPRH-S2F01502 ([4]; 1600 g ae/ha) [%] | Activity (visual injury, 0 = no injury, 100 = complete kill) PAPRH-S2F01502 ([4]; 3200 g ae/ha) [%] | Activity (visual injury, 0 = no injury, 100 = complete kill) PAPRH-S4F00101 ([5]; 800 g ae/ha) [%] | Activity (visual injury, 0 = no injury, 100 = complete kill) PAPRH-S4F00101 ([5]; 1600 g ae/ha) [%] | Activity (visual injury, 0 = no injury, 100 = complete kill) PAPRH-S4F00101 ([5]; 3200 g ae/ha) [%] | other results
1 | O=C(O)COc1ccc(Cl)cc1Cl [2,4-D, (2,4-dichlorophenoxy)acetic acid] | 21 | 16 | 50 | 85 | 94 | 99 | 21 | 19 | 59 | 15 | 53 | 51 | 22 | 42 | 33 | –
2 | COc1c(Cl)ccc(-c2cc(N)c(Cl)c(C(=O)O)n2)c1F [Compound I, 4-amino-3-chloro-6-(4-chloro-2-fluoro-3-methoxyphenyl)pyridine-2-carboxylic acid] | – | – | – | – | – | – | – | – | – | – | – | – | – | – | – | Activity (visual injury, 0 = no injury, 100 = complete kill) PAPRH-S1F00101 ([1]; 7.5 g ae/ha): 90%; Activity (visual injury, 0 = no injury, 100 = complete kill) PAPRH-S1F00101 ([1]; 10 g ae/ha): 90%; Activity (visual injury, 0 = no injury, 100 = complete kill) PAPRH-Susceptible ([2]; 7.5 g ae/ha): 95%; Activity (visual injury, 0 = no injury, 100 = complete kill) PAPRH-Susceptible ([2]; 10 g ae/ha): 97%; Activity (visual injury, 0 = no injury, 100 = complete kill) PAPRH-S4F00103 ([3]; 7.5 g ae/ha): 78%; Activity (visual injury, 0 = no injury, 100 = complete kill) PAPRH-S4F00103 ([3]; 10 g ae/ha): 95%; Activity (visual injury, 0 = no injury, 100 = complete kill) PAPRH-S2F01502 ([4]; 7.5 g ae/ha): 93%; Activity (visual injury, 0 = no injury, 100 = complete kill) PAPRH-S2F01502 ([4]; 10 g ae/ha): 94%; Activity (visual injury, 0 = no injury, 100 = complete kill) PAPRH-S4F00101 ([5]; 7.5 g ae/ha): 88%; Activity (visual injury, 0 = no injury, 100 = complete kill) PAPRH-S4F00101 ([5]; 10 g ae/ha): 94%
3 | Cc1cc(Cl)ccc1OCC(=O)O [MCPA, 2-(4-chloro-2-methyl-phenoxy)acetic acid] | 14 | 23 | 57 | 70 | 89 | 100 | 23 | 40 | 57 | 28 | 14 | 58 | 28 | 37 | 60 | –
